Test results from patent US20240228543A1, “CYCLIC PEPTIDE INHIBITORS OF USP22” (THE JOHNS HOPKINS UNIVERSITY, priority 2021, published 2024).
Values joined by “and” are separate entries in the source; they are usually repeats but may differ in a detail not shown here. Equal entries are not always repeated. Positions of bridges follow the written chain, without caps; N, C: chain ends. Non-standard residues stand in square brackets, D forms with d. Residues, ends and D or L forms follow the SMILES beside them.

What was measured:
Format in all cases: biochemical
USP51/ATXN7L3/ENY2 = target: T1, USP51/ATXN7L3/ENY2 (Homo sapiens, UniProt Q70EK9); test: Inhibition of H2B DUB complexes, Ub-AMC cleavage: USP51 complex; settings: 1000 nM complex, 5 μM Ub-AMC
T1 construct: made in house
T1 sequence (Q70EK9 1-711): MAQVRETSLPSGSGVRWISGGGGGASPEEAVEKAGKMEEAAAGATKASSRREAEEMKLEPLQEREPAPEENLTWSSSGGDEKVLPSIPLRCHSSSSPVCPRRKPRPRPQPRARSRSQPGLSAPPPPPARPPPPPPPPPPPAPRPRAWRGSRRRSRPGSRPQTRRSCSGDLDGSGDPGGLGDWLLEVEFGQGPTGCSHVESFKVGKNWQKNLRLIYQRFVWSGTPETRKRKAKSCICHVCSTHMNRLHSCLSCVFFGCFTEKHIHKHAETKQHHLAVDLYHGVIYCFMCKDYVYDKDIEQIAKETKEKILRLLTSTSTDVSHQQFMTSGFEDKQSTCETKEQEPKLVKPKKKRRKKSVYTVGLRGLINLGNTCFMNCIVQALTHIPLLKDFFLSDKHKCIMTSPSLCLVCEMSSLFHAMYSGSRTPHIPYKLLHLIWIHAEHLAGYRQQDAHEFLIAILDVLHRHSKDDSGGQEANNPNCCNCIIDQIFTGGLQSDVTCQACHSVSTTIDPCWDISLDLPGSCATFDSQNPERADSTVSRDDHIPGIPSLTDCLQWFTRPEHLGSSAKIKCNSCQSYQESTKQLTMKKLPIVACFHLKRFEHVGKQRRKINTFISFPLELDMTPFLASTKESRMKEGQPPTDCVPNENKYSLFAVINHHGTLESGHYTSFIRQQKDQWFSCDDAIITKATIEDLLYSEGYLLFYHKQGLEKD
T1 sequence (Q14CW9 1-347 partner): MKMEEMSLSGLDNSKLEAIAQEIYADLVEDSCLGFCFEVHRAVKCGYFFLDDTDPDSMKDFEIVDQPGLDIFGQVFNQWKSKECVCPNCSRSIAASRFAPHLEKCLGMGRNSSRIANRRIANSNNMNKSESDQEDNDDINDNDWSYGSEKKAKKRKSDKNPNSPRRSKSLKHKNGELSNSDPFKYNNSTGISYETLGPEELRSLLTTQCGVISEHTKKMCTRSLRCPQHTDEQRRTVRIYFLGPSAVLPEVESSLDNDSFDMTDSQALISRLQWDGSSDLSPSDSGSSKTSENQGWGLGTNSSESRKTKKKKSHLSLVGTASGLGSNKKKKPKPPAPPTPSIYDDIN
T1 sequence (Q9NPA8 1-101 partner): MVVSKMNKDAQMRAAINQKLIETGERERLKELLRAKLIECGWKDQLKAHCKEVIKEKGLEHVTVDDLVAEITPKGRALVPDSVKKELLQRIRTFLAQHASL
Description: (§1) Cleavage rates of 5 μM Ub-AMC were assayed for 75 nM USP22/ATXN7L3/ENY2/ATXN7 (hDUBm), 100 nM USP27x/ATXN7L3/ENY2, or 1000 nM USP51/ATXN7L3/ENY2. Rates were normalized to the uninhibited reaction in each case to determine the fraction of apparent activity.
(§2) DUB specificity assays Ubiquitin-rhodamine(110)-glycine cleavage rates were measured for all DUBs available in the DUBprofiler™ panel with two independent replicates (44 in total; Ubiquigent). […] USP22 was not included in the panel, and is not represented in FIG. 12A. […] Initial cleavage rates of each complex were measured on a fixed concentration of 5 μM Ub-AMC.
(§3) Heterotrimeric complexes containing USP27x and USP51 were purified, respectively, in complex with ENY2 and ATXN7L3. The activity of these complexes on Ub-AMC was compared to that of the human DUBm, which contains USP22, ENY2, ATXN7L3, and a fourth subunit, ATXN7, that anchors the DUBm to the rest of the SAGA complex.

USP27x/ATXN7L3/ENY2 = target: T2, USP27x/ATXN7L3/ENY2 (Homo sapiens, UniProt A6NNY8); test: Inhibition of H2B DUB complexes, Ub-AMC cleavage: USP27x complex; settings: 100 nM complex, 5 μM Ub-AMC
T2 construct: made in house
T2 sequence (A6NNY8 1-438): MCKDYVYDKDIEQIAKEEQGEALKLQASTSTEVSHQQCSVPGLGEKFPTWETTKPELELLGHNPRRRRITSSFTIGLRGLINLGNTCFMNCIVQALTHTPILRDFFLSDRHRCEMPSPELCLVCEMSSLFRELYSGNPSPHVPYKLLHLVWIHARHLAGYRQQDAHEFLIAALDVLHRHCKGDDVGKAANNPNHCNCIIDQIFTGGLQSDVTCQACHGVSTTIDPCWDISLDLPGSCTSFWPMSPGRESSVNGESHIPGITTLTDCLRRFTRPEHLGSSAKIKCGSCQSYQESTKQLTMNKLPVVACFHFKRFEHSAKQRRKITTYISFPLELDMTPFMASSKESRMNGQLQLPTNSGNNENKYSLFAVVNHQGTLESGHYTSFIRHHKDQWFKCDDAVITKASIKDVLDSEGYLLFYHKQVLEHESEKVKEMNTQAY
T2 sequence (Q14CW9 1-347 partner): T1 sequence (Q14CW9 1-347 partner)
T2 sequence (Q9NPA8 1-101 partner): T1 sequence (Q9NPA8 1-101 partner)
Description: as §1, §2, §3

[1] = target: T3, human DUB module (hDUBm; USP22, ATXN7, ATXN7L3, ENY2) (Homo sapiens, UniProt Q9UPT9); test: Ub-AMC deubiquitination assay, human DUB module; settings: Ki (apparent, Morrison approximation), Ub-AMC cleavage, 200 nM DUB, 1 μM Ub-AMC
T3 construct: 6xHis (TEV-cleavable) (N, cleaved yes); made in house; host or cells: High Five insect cells (baculovirus, Bac2Bac; virus amplified in Sf9)
Description: FIG. 2A is a graph of initial rates of Ub-AMC cleavage by hDUB module as a function of substrate concentration. […] FIGS. 2B-2G are graphs of each cyclic peptide, as indicated, tested for its ability to inhibit Ub-AMC cleavage in the presence of increasing amounts of the peptide into a reaction with a fixed amount of DUB (200 nM) and Ub-AMC (1 μM). Ki values were determined for each curve using the Morrison Ki approximation.
Ub-AMC deubiquitination assay A working stock mixture of either yDUBm or hDUBm was prepared in the presence of either DMSO (mock) or a dilution series of the cyclic peptide. […] Each enzyme:peptide mixture was incubated for 30 min at 30° C. in the case of yDUBm, and 37° C. in the case of hDUBm, with each enzyme complex at 1.033× the desired concentration (207 nM). The enzyme:peptide mixture ([…]) was added to 1 μL of 30 μM U b-AMC (7-amino-4-methylcoumarin) (Boston Biochem), for a final concentration of 200 nM DUBm, the indicated cyclic peptide concentration, and 1 μM Ub-AMC. DUB activity was measured by observing the increase in AMC fluorescence in a plate reader, and the initial rate of fluorescence increase was calculated and plotted as a function of inhibitor concentration (FIGS. 2B-2I). The Ki values were determined using the Morrison approximation of enzyme inhibition equilibria within Prism (Graphpad).
The cyclic peptides that constituted potential inhibitors were chemically synthesized by solid phase peptide synthesis and tested for their effectiveness and specificity as inhibitors in vitro. Since the enzyme kinetics of the human DUB module had not previously been characterized, hDUBm activity was assayed using the fluorogenic substrate, ubiquitin-amino methyl coumarin (Ub-AMC) (FIG. 2A).

T3 sequence (Q9UPT9 whole entry, one chain of several): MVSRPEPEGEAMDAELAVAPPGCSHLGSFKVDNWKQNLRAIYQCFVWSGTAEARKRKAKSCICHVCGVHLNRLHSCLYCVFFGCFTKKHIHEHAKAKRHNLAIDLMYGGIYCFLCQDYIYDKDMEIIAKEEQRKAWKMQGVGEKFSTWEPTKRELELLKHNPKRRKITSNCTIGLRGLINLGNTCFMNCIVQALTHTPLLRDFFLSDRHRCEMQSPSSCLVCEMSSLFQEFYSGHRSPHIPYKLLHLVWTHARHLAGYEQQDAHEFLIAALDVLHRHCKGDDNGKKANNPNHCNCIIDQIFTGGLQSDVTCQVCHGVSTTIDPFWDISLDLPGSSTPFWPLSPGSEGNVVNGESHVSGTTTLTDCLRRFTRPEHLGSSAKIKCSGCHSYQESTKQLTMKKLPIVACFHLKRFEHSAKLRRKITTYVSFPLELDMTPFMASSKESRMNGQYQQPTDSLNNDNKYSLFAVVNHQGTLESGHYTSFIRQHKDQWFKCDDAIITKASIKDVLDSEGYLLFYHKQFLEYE
T3 sequence (O15265 3-151 partner limits assumed, one chain of several): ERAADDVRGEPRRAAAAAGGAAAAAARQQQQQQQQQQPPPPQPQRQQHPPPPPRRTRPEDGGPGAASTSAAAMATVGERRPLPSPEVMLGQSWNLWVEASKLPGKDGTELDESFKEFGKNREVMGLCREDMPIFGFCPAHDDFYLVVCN

`CC[C@H](C)[C@@H]1NC(=O)[C@H](C)NC(=O)[C@@H](Cc2ccc(O)cc2)NC(=O)CSC[C@@H](C(N)=O)NC(=O)[C@H](CC(C)C)NC(=O)[C@H](CC(C)C)NC(=O)[C@H]([C@@H](C)O)NC(=O)[C@H]([C@@H](C)O)NC(=O)[C@H](CCCCN)NC(=O)CNC(=O)[C@H](CCCNC(=N)N)NC(=O)[C@H](Cc2ccc(O)cc2)NC(=O)[C@H](CO)NC1=O` [hD1] ({CH2CO}-[dY]AISYRGKTTLLC-NH2; thioether N-13) was tested, and the IC50 (USP51/ATXN7L3/ENY2) was over 250 µM, the IC50 (USP27x/ATXN7L3/ENY2) was 3 µM and the Ki [1] was < 0.1 µM and 0.0206 µM.
